Test results: US9890138B2, “Diaminopyrimidine derivatives and processes for the preparation thereof” (YUHAN CORPORATION, priority 2011, dated 2018)
Where a name gives a salt, the structure may show the parent alone.

target: T1, human 5-HT4(a) (Homo sapiens, UniProt Q13639); assay: Evaluation of agonistic activity in CHO-K1 cells expressing human 5-HT4(a) (GeneBlAzer HTR4-CRE-bla CHO-K1, beta-lactamase reporter); type: cell-based; settings: CHO-K1 cells stably expressing human 5-HT4(a)
T1 construct: host or cells: GeneBlAzer HTR4-CRE-bla CHO-K1 cells
In short: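 GeneBlAzer HTR4-CRE-bla CHO-K1 cells, 10^4/well overnight, exposed 5 h to compounds at 8 concentrations in medium with 1% DMSO in the added solution. β-lactamase substrate 2 h in dark; 410 nm excitation, 465/535 nm emission ratio; EC50 by non-linear regression.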

T1 sequence (Q13639 1-387 isoform Q13639-2): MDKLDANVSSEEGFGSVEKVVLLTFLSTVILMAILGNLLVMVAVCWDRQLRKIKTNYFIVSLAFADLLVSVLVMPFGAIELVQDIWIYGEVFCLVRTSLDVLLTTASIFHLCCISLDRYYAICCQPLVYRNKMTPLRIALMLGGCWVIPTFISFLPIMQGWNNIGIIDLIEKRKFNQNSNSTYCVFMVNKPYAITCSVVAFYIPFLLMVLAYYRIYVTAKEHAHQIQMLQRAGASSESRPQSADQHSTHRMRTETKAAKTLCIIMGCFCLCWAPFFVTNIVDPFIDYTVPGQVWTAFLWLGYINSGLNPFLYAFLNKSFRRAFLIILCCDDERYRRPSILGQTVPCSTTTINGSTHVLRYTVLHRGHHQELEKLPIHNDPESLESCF

Row | EC50 | Structure (SMILES)
1 | 23 pM | CCCc1cc(N2CC[C@H](NC(C)=O)C2)nc(Nc2cc(Cl)ccc2C)n1 [Example 255]
2 | 2.3 pM | CCCCc1cc(N2CC[C@H](NC(C)C)C2)nc(Nc2cccc(C#N)c2)n1 [Example 235]
3 | 41 pM | CCCc1cc(N2CCC[C@H]2C)nc(Nc2ccc(F)c([N+](=O)[O-])c2)n1 [Example 320, (R)—N-(4-fluoro-3-nitrophenyl)-4-(2-methylpyrrolidin-1-yl)-6-propylpyrimidin-2-amine]
4 | 389 pM | CCCc1cc(N2CC[C@@H](O)C2)nc(Nc2cccc(C#N)c2)n1 [Example 57, (R)-3-[4-(3-hydroxypyrrolidin-1-yl)-6-propylpyrimidin-2-ylamino]benzonitrile]
5 | 11 pM | CCCCCN[C@H]1CCN(c2cc(CCC)nc(Nc3ccc(C)c(C#N)c3)n2)C1 [Example 422]
6 | 7.9 pM | CCCc1cc(N2CC[C@H](NC3CCCCC3)C2)nc(Nc2ccc(C)c(C#N)c2)n1 [Example 421]
7 | 32 pM | CCCc1cc(N2CC[C@H](NC(C)=O)C2)nc(Nc2cccc(C#N)c2)n1 [Example 54, (S)-N-{1-[2-(3-cyanophenylamino)-6-propylpyrimidin-4-yl]pyrrolidin-3-yl}acetamide]
8 | 36 pM | CCCc1cc(N2CCC[C@H]2COC)nc(Nc2ccc(N)c(C#N)c2)n1 [Example 45, (S)-2-amino-5-{4-[2-(methoxymethyl)pyrrolidin-1-yl]-6-propylpyrimidin-2-ylamino}benzonitrile]
9 | 130 pM | CCCCc1cc(N2CC[C@H](NC(=O)OC(C)(C)C)C2)nc(Nc2ccc(C)c(C#N)c2)n1 [Example 232, (S)-tert-butyl 1-[6-butyl-2-(3-cyano-4-methylphenylamino)pyrimidin-4-yl]pyrrolidin-3-ylcarbamate]
10 | 91 pM | CCCc1cc(N2CC[C@H](NCc3cccc(F)c3)C2)nc(Nc2cccc(C#N)c2)n1 [Example 90, (S)-3-{4-[3-(3-fluorobenzylamino)pyrrolidin-1-yl]-6-propylpyrimidin-2-ylamino}benzonitrile]
11 | 210 pM | CCCc1cc(N2CCC[C@H]2C)nc(Nc2cccc(C(F)(F)F)c2)n1 [Example 316]
12 | 14 pM | CCCCc1cc(N2CC[C@H](NC(C)=O)C2)nc(Nc2ccc(C)c(C#N)c2)n1 [Example 228, (S)—N-{1-[6-butyl-2-(3-cyano-4-methylphenylamino)pyrimidin-4-yl]pyrrolidin-3-yl}acetamide]
13 | 9.8 pM | CCCc1cc(N2CC[C@H](NCC3CC3)C2)nc(Nc2cccc(C(F)(F)F)c2)n1 [Example 379]
14 | 230 pM | CCCc1cc(N2CCC[C@H]2COC)nc(Nc2cccc([N+](=O)[O-])c2)n1 [Example 32, (S)-4-[2-(methoxymethyl)pyrrolidin-1-yl]-N-(3-nitrophenyl)-6-propylpyrimidin-2-amine]
15 | 14 pM | CCCc1cc(N2CC[C@H](N)C2)nc(Nc2ccc(F)c([N+](=O)[O-])c2)n1 [Example 358, (S)-4-(3-aminopyrrolidin-1-yl)-N-(4-fluoro-3-nitrophenyl)-6-propylpyrimidin-2-amine dihydrochloride]
16 | 16 pM | CCCc1cc(N2CC[C@H](NC(C)=O)C2)nc(Nc2ccc(F)c([N+](=O)[O-])c2)n1 [Example 248, (S)—N-{1-[2-(4-fluoro-3-nitrophenylamino)-6-propylpyrimidin-4-yl]pyrrolidin-3-yl}acetamide]
17 | 39 pM | CCCc1cc(N2CCC(NC(C)=O)C2)nc(Nc2ccc(F)c([N+](=O)[O-])c2)n1 (centres unmarked) [Example 296]
18 | 18 pM | CCCc1cc(N2CCC[C@H]2CO)nc(Nc2ccc(N)c(C#N)c2)n1 [Example 215]
19 | 2.6 pM | CCCCc1cc(N2CC[C@H](NC)C2)nc(Nc2ccc(F)c(N)c2)n1 [Example 456]
20 | 27 pM | CCCc1cc(N2CCC[C@H]2C)nc(Nc2ccc(N)c(C(F)(F)F)c2)n1 [Example 323, (R)—N^1-[4-(2-methylpyrrolidin-1-yl)-6-propylpyrimidin-2-yl]-3-(trifluoromethyl)benzene-1,4-diamine]
